In patent publication US7834187B2, “Crystalline variable hydrate of (S)-6-(4-(2-((3-9H-carbazol-4-yloxy)-2-hydroxypropyl)amino)-2-methylpropyl)phenoxy)-3-pyridinecarbox amide hemisuccinate salt” (Eli Lilly and Company, priority 2004, dated 2010):

How the values were obtained:
[1] = Moisture sorption analysis; type: physicochemical; settings: between 10 and 80% relative humidity
From the text: Various methods, including moisture sorption analysis, Karl Fischer analysis, X-ray powder diffraction (XRD) and ^13C solid-state nuclear magnetic resonance (SSNMR), are used to characterize SAM Classic Hydrate.
The SAM Classic Hydrate crystal structure retains approximately 6-11% water between 10 and 80% relative humidity. The hydrate rapidly equilibrates with the atmosphere, such that the water content observed by analytical techniques is a function of the relative humidity at which the sample was equilabrated.

B3 receptor = B3 receptor (Homo sapiens, UniProt P13945); settings: single dose; as described in WO 98/09625; cited from earlier work
Sequence of B3 receptor (P13945 whole entry): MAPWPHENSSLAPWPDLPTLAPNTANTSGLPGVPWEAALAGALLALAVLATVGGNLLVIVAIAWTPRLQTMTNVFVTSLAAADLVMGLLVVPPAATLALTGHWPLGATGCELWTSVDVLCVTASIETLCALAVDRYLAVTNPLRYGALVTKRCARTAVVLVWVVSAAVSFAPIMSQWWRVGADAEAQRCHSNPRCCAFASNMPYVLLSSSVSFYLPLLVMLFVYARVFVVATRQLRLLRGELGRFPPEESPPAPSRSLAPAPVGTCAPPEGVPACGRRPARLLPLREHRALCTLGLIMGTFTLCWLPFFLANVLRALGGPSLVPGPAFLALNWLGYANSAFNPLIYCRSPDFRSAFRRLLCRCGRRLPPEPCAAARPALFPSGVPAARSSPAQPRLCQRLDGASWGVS

Row | Structure (SMILES) | water retained by the crystal structure (moisture sorption profile) [1] | % of isoproterenol's response (B3 receptor)
1 | CC(C)(Cc1ccc(Oc2ccc(C(N)=O)cn2)cc1)NC[C@H](O)COc1cccc2[nH]c3ccccc3c12.CC(C)(Cc1ccc(Oc2ccc(C(N)=O)cn2)cc1)NC[C@H](O)COc1cccc2[nH]c3ccccc3c12.O=C(O)CCC(=O)O [SAM Classic Hydrate, (S)-(3-pyridinecarboxamide,6-[4-[2-[[3-(9H-carbazol-4-yloxy)-2-hydroxypropyl]amino]-2-methylpropyl]phenoxy])-hemi-succinate salt] | 6-11% | 
2 | CC(C)(Cc1ccc(Oc2ccc(C(N)=O)cn2)cc1)NC[C@H](O)COc1cccc2[nH]c3ccccc3c12 [SAM Classic free base] |  | at least 30%
